The assay deals with Sodium channel protein type 10 subunit alpha (Mus musculus, UniProt Q6QIY3). The assay is described as follows: Inhibition of mouse recombinant Nav 1.8 channel expressed in HEK293 cells by isotopic efflux assay. It is filed as cell-based.

The structures appear in SMILES notation. A value given as a limit tells only on which side of the number the result lay.

Sodium channel protein type 10 subunit alpha, sequence (Q6QIY3 whole entry): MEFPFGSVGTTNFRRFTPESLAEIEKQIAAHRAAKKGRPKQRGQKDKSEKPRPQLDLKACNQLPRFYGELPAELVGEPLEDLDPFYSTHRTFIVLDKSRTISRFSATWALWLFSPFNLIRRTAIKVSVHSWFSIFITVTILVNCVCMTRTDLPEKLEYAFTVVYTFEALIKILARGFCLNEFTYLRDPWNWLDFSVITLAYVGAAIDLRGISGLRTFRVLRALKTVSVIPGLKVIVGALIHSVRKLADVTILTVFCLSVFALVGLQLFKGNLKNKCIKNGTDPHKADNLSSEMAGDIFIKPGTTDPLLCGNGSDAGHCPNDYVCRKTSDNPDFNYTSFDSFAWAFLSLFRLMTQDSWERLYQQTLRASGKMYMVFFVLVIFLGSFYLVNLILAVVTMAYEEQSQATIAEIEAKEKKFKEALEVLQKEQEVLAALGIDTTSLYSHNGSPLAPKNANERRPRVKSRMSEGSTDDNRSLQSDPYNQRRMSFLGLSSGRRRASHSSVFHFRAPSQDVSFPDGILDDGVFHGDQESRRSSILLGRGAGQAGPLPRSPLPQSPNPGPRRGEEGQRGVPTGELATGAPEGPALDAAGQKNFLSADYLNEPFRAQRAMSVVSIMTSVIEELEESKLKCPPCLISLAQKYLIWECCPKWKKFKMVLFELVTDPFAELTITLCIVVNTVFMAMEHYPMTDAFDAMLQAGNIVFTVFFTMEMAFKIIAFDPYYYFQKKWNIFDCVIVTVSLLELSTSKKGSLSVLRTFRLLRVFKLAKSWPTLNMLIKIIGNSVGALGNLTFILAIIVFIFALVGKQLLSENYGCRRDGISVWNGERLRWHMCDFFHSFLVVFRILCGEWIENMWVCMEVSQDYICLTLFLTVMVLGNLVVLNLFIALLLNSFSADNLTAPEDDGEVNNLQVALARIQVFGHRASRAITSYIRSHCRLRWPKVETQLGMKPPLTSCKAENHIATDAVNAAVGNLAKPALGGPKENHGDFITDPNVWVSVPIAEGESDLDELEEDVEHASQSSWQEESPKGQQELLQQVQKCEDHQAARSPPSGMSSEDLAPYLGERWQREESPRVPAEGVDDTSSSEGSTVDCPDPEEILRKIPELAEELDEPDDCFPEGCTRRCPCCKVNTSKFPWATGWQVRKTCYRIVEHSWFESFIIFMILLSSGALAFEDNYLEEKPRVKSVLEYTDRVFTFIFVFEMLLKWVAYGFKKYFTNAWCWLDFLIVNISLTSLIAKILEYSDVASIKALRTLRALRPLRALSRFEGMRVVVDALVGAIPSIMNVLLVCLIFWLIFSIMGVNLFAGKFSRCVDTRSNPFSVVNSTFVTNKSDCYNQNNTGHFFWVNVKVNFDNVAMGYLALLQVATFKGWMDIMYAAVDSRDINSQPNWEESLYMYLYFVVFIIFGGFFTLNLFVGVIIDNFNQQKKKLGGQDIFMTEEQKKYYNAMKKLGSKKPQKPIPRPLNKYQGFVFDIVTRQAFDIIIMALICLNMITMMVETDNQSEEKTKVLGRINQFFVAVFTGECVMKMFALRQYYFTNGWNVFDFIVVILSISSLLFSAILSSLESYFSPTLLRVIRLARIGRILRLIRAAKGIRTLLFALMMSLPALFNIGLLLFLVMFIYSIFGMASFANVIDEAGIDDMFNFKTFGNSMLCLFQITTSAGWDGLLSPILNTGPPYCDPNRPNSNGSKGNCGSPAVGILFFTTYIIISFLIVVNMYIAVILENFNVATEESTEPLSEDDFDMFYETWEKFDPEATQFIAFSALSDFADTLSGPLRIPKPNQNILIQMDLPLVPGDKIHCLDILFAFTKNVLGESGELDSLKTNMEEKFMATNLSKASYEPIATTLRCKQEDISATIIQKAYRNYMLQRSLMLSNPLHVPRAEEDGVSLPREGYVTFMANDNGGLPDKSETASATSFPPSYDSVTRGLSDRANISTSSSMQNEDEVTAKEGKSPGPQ

On to `O=C(Nc1ccc2ncccc2c1)c1ccc(-c2ccc(Cl)cc2)o1`, for which the IC50 (usually the concentration that inhibits the measured activity by half) is 10 µM. The figure for `O=C(NCCc1ccccc1Cl)c1ccc(-c2ccc(Cl)cc2)o1` is 1.9 µM; for `CCOc1ccc(-c2ccc(C(=O)Nc3cccc(C)c3)o2)cc1` it is 0.43 µM.

Take `CN1CCc2ccc(NC(=O)c3ccc(-c4ccc(Cl)cc4)o3)cc21`: the 50% inhibitory concentration (IC50) was 4.6 µM.

On to `N#CCc1cccc(NC(=O)c2ccc(-c3ccc(Cl)cc3)o2)c1`, for which the IC50 was determined as 1.7 µM.

Take `Cc1cccc(NC(=O)c2ccc(-c3ccc(S(C)(=O)=O)cc3)o2)c1`: the IC50 was over 30 µM. The same measure for `Cc1cccc(N(C)C(=O)c2ccc(-c3ccc(Cl)cc3)o2)c1`: 3.4 µM; for `Cc1cccc(NC(=O)c2coc(-c3ccc(Cl)cc3)c2)c1`: 20 µM. As for `O=C(c1ccc(-c2ccc(Cl)cc2)o1)N1CCOCC1`, the IC50 was over 30 µM.

As for `Cc1cccc(NC(=O)c2ccc(-c3cccc(C#N)c3)o2)c1`, the IC50 amounted to 30 µM. For the compound `O=C(Nc1cccc(N2CCOCC2)c1)c1ccc(-c2ccc(Cl)cc2)o1`, the concentration for half-maximal inhibition (IC50) is 4.6 µM. The same measure for `CN(C)C1CCN(C(=O)c2ccc(-c3ccc(Cl)cc3)o2)CC1`: 5.2 µM.

(Values after ChEMBL document CHEMBL1140726, “Discovery and biological evaluation of 5-aryl-2-furfuramides, potent and selective blockers of the Nav1.8 sodium channel with efficacy in models of neuropathic and inflammatory pain” (J Med Chem, 2008).)
